# How the values were obtained:
# A/M2 S31N = A/M2 S31N (Influenza A virus, UniProt P0DOF5, S31N); format: cell-based, influenza A/Udorn/72; details: for A/M2 S31N inhibition by 100 μM for 2 min (mean ± SE): pH 5.5
# A/PR/8/34 (A/H1N1) = format: cell-based, influenza A virus
# A/M2 V27A = A/M2 V27A (Influenza A virus, UniProt P0DOF5, V27A); format: cell-based, influenza A/Udorn/72
SMILES,activity against A/PR/8/34 strain (A/PR/8/34 (A/H1N1)),A/M2 S31N inhibition by 100 μM for 2 min (mean ± SE) (A/M2 S31N),further results
"CC12CC34CNCC35CC1(C)C(C)(C5)C2(C)C4.Cl (stereo not shown) [compound 18, 7,8,9,10-Tetramethyl-3-azapentacyclo[7.2.1.1^5,8.0^1,5.0^7,10]tridecane Hydrochloride]",strong activity,,inhibition of S31N mutant ion channel (A/M2 S31N): lack of inhibitory potency
"C1=CC2C3CNCC3C1C1CC21.Cl (stereo not shown) [compound 4, 4-Azatetracyclo[5.3.2.0^2,6.0^8.10]dodec-11-ene Hydrochloride]",,0%,
"C1=CC2C3CC3C1C1CN(C3CCNCC3)CC21.Cl (stereo not shown) [compound 8, 4-(4-Piperidinyl)-4-azatetracyclo[5.3.2.0^2,6.0^8.10]dodec-11-ene Dihydrochloride]",strong activity,,
"Cl.N=C(N)N1CC2C3C=CC(C4CC34)C2C1 (stereo not shown) [compound 5, 4-Amidino-4-azatetracyclo[5.3.2.0^2,6.0^8.10]dodec-11-ene Hydrochloride]",,0%,
"Cl.N=C(N)N1CC2C3CCC(C4CCC43)C2C1 (stereo not shown) [compound 14, 4-Amidino-4-azatetracyclo[5.4.2.0^2,6.0^8.11]tridecane Hydrochloride]",,,activity against V27A M2 mutant channel (A/M2 V27A): fair activity
"C1=CC2C1C1C=CC2C2CNCC12.Cl (stereo not shown) [compound 11, 4-Azatetracyclo[5.4.2.0^2,6.0^8.11]trideca-9,12-diene Hydrochloride]",strong activity,,
